In US8048908B2, “11β-hydroxysteroid dehydrogenase type 1 active compounds” (High Point Pharmaceuticals, LLC, priority 2006, dated 2011):

Key:
h-11βHSD1 = molecular target: T1, h-11βHSD1 (Homo sapiens, UniProt P28845); experiment: 11βHSD1 Enzyme Assay (scintillation proximity assay); format: biochemical; details: yeast extract expressing h-11βHSD1, 120 nM 3H-cortisone, 4 mM β-NADPH, 60 min at 30° C.
T1 construct: made in house
Method: ^3H-cortisone and anti-rabbit Ig coated scintillation proximity assay (SPA) beads were purchased from Amersham Pharmacia Biotech, —NADPH was from Sigma and rabbit anti-cortisol antibodies were from Fitzgerald. An extract of yeast transformed with h-11βHSD1 (Hult et al., FEBS Lett., 441, 25 (1998)) was used as the source of enzyme. The test compounds were dissolved in DMSO (10 mM). All dilutions were performed in a buffer containing 50 mM TRIS-HCl (Sigma Chemical Co), 4 mM EDTA (Sigma Chemical Co), 0.1% BSA (Sigma Chemical Co), 0.01% Tween-20 (Sigma Chemical Co) and 0.005% bacitracin (Novo Nordisk A/S), pH=7.4. Optiplate 96 wells plates were supplied by Packard. The amount of ^3H-cortisol bound to the SPA beads was measured on Top-Count NXT, Packard.
h-11βHSD1, 120 nM ^3H-cortisone, 4 mM β-NADPH, antibody (1:200), serial dilutions of test compound and SPA particles (2 mg/well) were added to the wells. The reaction was initiated by mixing the different components and was allowed to proceed under shaking for 60 min at 30° C. The reaction was stopped be the addition of 10 fold excess of a stopping buffer containing 500 μM carbenoxolone and 1 μM cortisone. Data was analysed using GraphPad Prism software.

11βHSD1 = molecular target: T2, 11βHSD1 (Homo sapiens, UniProt P28845); details: lean healthy volunteers and people with type 2 diabetes; cited from earlier work
T2 construct: host or cells: human subjects (in vivo)
T2 sequence (P28845 whole entry): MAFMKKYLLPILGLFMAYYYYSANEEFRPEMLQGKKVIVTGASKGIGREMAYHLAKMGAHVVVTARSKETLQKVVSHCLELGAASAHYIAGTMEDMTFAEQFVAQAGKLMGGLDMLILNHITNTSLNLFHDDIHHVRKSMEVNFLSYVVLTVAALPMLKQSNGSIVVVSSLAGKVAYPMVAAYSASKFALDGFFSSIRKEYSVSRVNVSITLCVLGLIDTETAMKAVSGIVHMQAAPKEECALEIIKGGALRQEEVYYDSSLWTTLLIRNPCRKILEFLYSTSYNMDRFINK

T1 sequence (P28845 whole entry): as above

Row | SMILES | IC50 (h-11βHSD1) [nM] | insulin sensitivity (11βHSD1)
1 | CC1(C)CC2CC(C)(CN2C(=O)c2ccc(N3CCC(C(=O)NC4CCC(O)CC4)C3)cc2)C1 (stereo not shown) [Example 1-7, 1-[4-(1,3,3-Trimethyl-6-aza-bicyclo[3.2.1]octane-6-carbonyl)-phenyl]-pyrrolidine-3-carboxylic acid (4-hydroxy-cyclohexyl)-amide] | 125 | 
2 | CN(C(=O)C1CC1)C1CCN(c2ccc(C(=O)N3CC4CCC(CC4)C3)cc2)C1 (stereo not shown) [Example 1-31, Cyclopropanecarboxylic acid {1-[4-(3-aza-bicyclo[3.2.2]-nonane-3-carbonyl)-phenyl]-pyrrolidin-3-yl}-methyl-amide] | 128 | 
3 | CN(C1CCN(c2ccc(C(=O)N3CC4CCC(CC4)C3)cc2)C1)S(=O)(=O)Cc1ccccc1 (stereo not shown) [Example 1-33, N-{1-[4-(3-Aza-bicyclo[3.2.2]-nonane-3-carbonyl)-phenyl]-pyrrolidin-3-yl}-N-methyl-phenyl-methanesulfonamide] | 43 | 
4 | CC1(C)[C@@H](OC(=O)CCC(=O)O)CC[C@]2(C)[C@H]3C(=O)C=C4[C@@H]5C[C@@](C)(C(=O)O)CC[C@]5(C)CC[C@@]4(C)[C@]3(C)CC[C@@H]12 [carbenoxolone] |  | improves insulin sensitivity
